Results: patent publication US8673889B2, “BLT2-mediated disease, BLT2 binding agent and the compound” (Ono Pharmaceutical Co., Ltd., priority 2004, dated 2014)

Assays:
Type in all cases: cell-based
[1] = target: T1, BLT1 (Homo sapiens, UniProt Q15722); assay: BLT1 agonistic activity measured by the same way (intracellular Ca2+); conditions: measured by the same way as BLT2
[2] = target: T2, BLT2 (Homo sapiens, UniProt Q9NPC1); assay: Evaluation of BLT2 agonistic activity by monitoring the variation of intracellular Ca2+ concentration; set-up: expressed in transfected cells
T2 sequence (Q9NPC1 1-358): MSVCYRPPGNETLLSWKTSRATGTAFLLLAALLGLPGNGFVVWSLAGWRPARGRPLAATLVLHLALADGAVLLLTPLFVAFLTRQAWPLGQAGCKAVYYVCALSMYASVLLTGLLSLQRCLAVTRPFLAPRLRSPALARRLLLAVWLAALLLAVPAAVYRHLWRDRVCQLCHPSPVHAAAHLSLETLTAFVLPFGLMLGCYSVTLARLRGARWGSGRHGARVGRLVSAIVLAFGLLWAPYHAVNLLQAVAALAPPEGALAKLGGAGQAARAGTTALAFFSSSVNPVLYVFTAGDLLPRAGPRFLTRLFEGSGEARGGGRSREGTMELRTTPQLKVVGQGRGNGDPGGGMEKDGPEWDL

[3] = target: T1, BLT1; assay: BLT1 antagonistic activity measured by the same way (intracellular Ca2+); conditions: measured by the same way as BLT2
Protocol: (§1) The receptor antagonist activity was evaluated by using human BLT2 gene-overexpressing Chinese Hamster Ovar (CHO) cells (see J. Exp. Med. Volume 192, Number 3 2000, and 421-.). BLT2-expressing cells were cultured in Ham 's F1 medium (GIBCO BRL and No. 11765-047) containing 10% FBS (fetal bovine serum), penicillin/streptomycin and blasticidin (5 μg/ml). First, to make the cells to take Fura2-AM (Dojindo and No. 348-05831), the cells were incubated in 5 μM Fura2-AM solution (Ham's F1 medium containing 10% FBS, 20 mM HEPES buffer (pH7.4) and 2.5 mM probenecid (Sigma and No. P-8761)) at 37° C. for 60 minutes. Then, the cells were washed once with Hanks solution containing 20 mM HEPES buffer (pH7.4) and 2.5 mM probenecid, and soaked in Hanks solution until assay. The plate was sat up on fluorescent drug screening system (Hamamatsu Photonics FDSS-2000) and measured without any stimulation for 30 seconds, to which the compound solution of the present invention was added. […] The compound of the present invention was dissolved to dimethylsulfoxide (DMSO) and added in order that the final concentration is […]. […] IC50 value is a concentration of the compound of the present invention in which the inhibition ratio is 50%. Also, BLT1 antagonistic activity was measured by the same way.

[4] = target: T2, BLT2; assay: Evaluation of BLT2 antagonistic activity by monitoring the variation of intracellular Ca2+ concentration; set-up: expressed in transfected cells; host or cells: CHO cells
Protocol: as §1

[5] = target: T3, mBLT2 (Mus musculus, UniProt Q9JJL9); assay: Measurement of intracellular Ca2+ concentration in mBLT2-expressing CHO cells; conditions: FIG. 4, read-out: EC50 value, rise of the intracellular calcium concentration
T3 construct: mBLT2 ORF was amplified by PCR using a sense primer having BamHI restriction enzyme site; expressed in transfected cells
T3 sequence (Q9JJL9 1-360): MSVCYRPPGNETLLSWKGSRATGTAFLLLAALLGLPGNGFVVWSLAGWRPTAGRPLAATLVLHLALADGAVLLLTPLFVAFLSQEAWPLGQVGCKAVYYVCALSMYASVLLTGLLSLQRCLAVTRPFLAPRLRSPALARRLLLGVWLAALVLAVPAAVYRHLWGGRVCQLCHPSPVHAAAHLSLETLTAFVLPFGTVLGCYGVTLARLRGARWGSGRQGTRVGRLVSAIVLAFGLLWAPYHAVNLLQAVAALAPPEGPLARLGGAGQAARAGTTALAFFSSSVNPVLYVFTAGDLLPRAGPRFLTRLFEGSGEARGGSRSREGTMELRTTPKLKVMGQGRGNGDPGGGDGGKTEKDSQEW
Source text: mBLT2 ORF was amplified by PCR using a sense primer having BamHI restriction enzyme site (sense primer; 5′-[…]-3′ (SEQ ID NO.1)) and an antisense primer having EcoRI restriction enzyme site (antisense primer; 5′-[…]-3′ (SEQ ID NO.2)). The PCR product was digested with BamHI and EcoRI and inserted in expression plasmid (pcDNA3 Invitrogen). The inserted sequence was confirmed by the DNA sequence. Plasmid DNA ([…]) was transfected into CHO cells cultured in Ham's F-12 medium containing 10% fetal bovine serum and antibiotic (streptomycin (100 μg/mL) and penicillin (100 μg/L)) in cell culture plates (6 cm). The resistant strains were obtained by culturing for 2 weeks in the existence of antibiotic (G418 [Wako], 1 mg/mL). […]
mBLT2-expressing CHO cells prepared by Biological Example 3 were cultured in modified Hepes-Tyrode's BSA buffer (Hepes-NaOH (25 mM, pH7.4), NaCl (140 mM), KCl (2.7 mM), CaCl2(10 nM), NaHCO3(12 mM), D-Glucose (5.6 mM), NaH2PO4(0.37 mM), MgCl2(0.49 mM), cremophour (0.01%), fatty acid-free BSA (fraction V, 0.1w/v %)) containing fluorochrome (Fura-2 AM [Dojin], 3 μm) at 37° C. for 2 hours to make to take fluorochrome. […] Dimethylsulfoxide (DMSO) solution (5 μL) containing ligand was added to the cell suspension, of which the intracellular calcium concentration was monitored (excitation wavelength 340 nm and 380 nm and fluorescent wave-length 510 nm).

[6] = target: T4, mBLT1 (Mus musculus, UniProt O88855); assay: Measurement of intracellular Ca2+ concentration in mBLT1-expressing CHO cells; conditions: FIG. 4
T4 construct: expressed in transfected cells; host or cells: CHO cells
T4 sequence (O88855 whole entry): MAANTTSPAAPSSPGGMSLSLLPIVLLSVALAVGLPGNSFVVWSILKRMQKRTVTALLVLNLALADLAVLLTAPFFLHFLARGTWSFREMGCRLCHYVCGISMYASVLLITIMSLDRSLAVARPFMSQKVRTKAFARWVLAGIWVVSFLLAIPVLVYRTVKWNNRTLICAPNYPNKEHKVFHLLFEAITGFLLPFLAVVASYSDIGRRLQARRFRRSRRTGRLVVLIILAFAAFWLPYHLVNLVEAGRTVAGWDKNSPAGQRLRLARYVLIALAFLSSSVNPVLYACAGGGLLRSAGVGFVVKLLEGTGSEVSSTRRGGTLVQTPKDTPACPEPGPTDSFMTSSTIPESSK

[7] = tested on: mock; assay: Measurement of intracellular Ca2+ concentration in mock cells; conditions: FIG. 4
Protocol: mBLT2-expressing CHO cells prepared by Biological Example 3 were cultured in modified Hepes-Tyrode's BSA buffer (Hepes-NaOH (25 mM, pH7.4), NaCl (140 mM), KCl (2.7 mM), CaCl2(10 nM), NaHCO3(12 mM), D-Glucose (5.6 mM), NaH2PO4(0.37 mM), MgCl2(0.49 mM), cremophour (0.01%), fatty acid-free BSA (fraction V, 0.1w/v %)) containing fluorochrome (Fura-2 AM [Dojin], 3 μm) at 37° C. for 2 hours to make to take fluorochrome. These cells were washed 2 times and resuspended (10^6 cells/mL) in Hepes-Tyrode's BSA buffer. The cell suspension (0.5 mL) was applied to fluorescent intensity meter (CAF-100 system [Jasco]). Dimethylsulfoxide (DMSO) solution (5 μL) containing ligand was added to the cell suspension, of which the intracellular calcium concentration was monitored (excitation wavelength 340 nm and 380 nm and fluorescent wave-length 510 nm).

[8] = target: T3, mBLT2; assay: ERK phosphorylation (1) in mBLT2-expressing CHO cells; conditions: ligand 5 minutes, FIG. 5
Source text: mBLT2 ORF was amplified by PCR using a sense primer having BamHI restriction enzyme site (sense primer; 5′-[…]-3′ (SEQ ID NO.1)) and an antisense primer having EcoRI restriction enzyme site (antisense primer; 5′-[…]-3′ (SEQ ID NO.2)). The PCR product was digested with BamHI and EcoRI and inserted in expression plasmid (pcDNA3 Invitrogen). The inserted sequence was confirmed by the DNA sequence. Plasmid DNA ([…]) was transfected into CHO cells cultured in Ham's F-12 medium containing 10% fetal bovine serum and antibiotic (streptomycin (100 μg/mL) and penicillin (100 μg/L)) in cell culture plates (6 cm). The resistant strains were obtained by culturing for 2 weeks in the existence of antibiotic (G418 [Wako], 1 mg/mL). The stable expressing strains were obtained by culturing 19 obtained resistant strains with limiting dilution method.

[9] = target: T4, mBLT1; assay: ERK phosphorylation (1) in mBLT1-expressing CHO cells; conditions: ligand 5 minutes, FIG. 5
[10] = tested on: mouse primary culture keratinocytes; assay: ERK phosphorylation (2) in mouse primary culture keratinocytes; conditions: FIG. 7

T1 sequence (Q15722 whole entry, species assumed): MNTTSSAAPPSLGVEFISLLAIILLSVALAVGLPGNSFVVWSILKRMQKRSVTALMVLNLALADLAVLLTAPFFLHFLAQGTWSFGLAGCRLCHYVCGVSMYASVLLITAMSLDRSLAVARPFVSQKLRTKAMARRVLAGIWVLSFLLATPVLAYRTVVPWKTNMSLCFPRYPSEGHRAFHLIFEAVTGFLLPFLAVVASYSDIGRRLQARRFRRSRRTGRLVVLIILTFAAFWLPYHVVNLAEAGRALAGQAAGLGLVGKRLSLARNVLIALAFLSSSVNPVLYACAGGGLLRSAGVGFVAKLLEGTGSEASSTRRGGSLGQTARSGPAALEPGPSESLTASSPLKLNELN

Row | Structure (SMILES) | BLT1 agonistic activity [1] | IC50 [2] [nM] | BLT1 antagonistic activity [3] | IC50 [4] [nM] | EC50 [5] [nM] | rise of intracellular calcium concentration [6] | rise of intracellular calcium concentration [7] | ERK phosphorylation [8] | ERK phosphorylation [9] | ERK phosphorylation [10]
1 | O=C(Cc1ccccc1)NCc1ccc(-c2ccccc2C(=O)O)cc1 [Example 13, 4′-{[(phenylacetyl)amino]methyl}-1,1′-biphenyl-2-carboxylic acid] | did not have BLT1 agonistic activity | 45 | – | – | – | – | – | – | – | –
2 | O=C([O-])c1ccc(-c2cccc(CN(CCCc3ccccc3)C(=O)CCc3ccccc3)c2)cc1.[Na+] [Example 1(32), sodium 3′-{[(3-phenylpropanoyl)(3-phenylpropyl)amino]methyl}-1,1′-biphenyl-4-carboxylate] | – | – | did not have BLT1 antagonistic activity | 1800 | – | – | – | – | – | –
3 | CCCCC(=O)N(Cc1ccc(-c2ccccc2C(=O)O)cc1)c1ccccc1 [compound A, 4′-{[pentanoyl(phenyl)amino]methyl}-1,1′-biphenyl-2-carboxylic acid] | – | – | – | – | 21 | not rised | not rised | induced | induced | induced ERK phosphorylation
4 | CCCCC/C=C\C[C@@H](O)/C=C/C=C/C=C\[C@@H](O)CCCC(=O)O [LTB4, 5-[S], 12-[R]-dihydroxy-6,14-cis-8,10-trans-eicosatetraenoic acid, reference compound] | – | – | – | – | 121 | – | – | induced | induced | induced ERK phosphorylation
